According to patent publication US7005416B2, “Dalfopristine/quinupristine combinations with cefpirome” (Jones Pharma Incorporated, priority 2000, dated 2006):
Converted amounts (≈) assume the structure as drawn.

Legend:
[1] = tested on: MRSA P8; experiment: Rat experimental aortic endocarditis, MRSA P8; format: in vivo, Wistar female rats; details: MRSA P8, 5 days treatment, FIG. 2; monotherapy P>0.05, combination P<0.05
From the text: (§1) For the experimental endocarditis study, Wistar female rats weighing 200 g with aortic vegetation (produced according to the method described by Heraief et al., Infect Immunol., 37,127–31 (1982), the disclosure of which is incorporated by reference herein) were infected with an inoculum of 10^5 CFU/ml of the organism to be tested, which corresponds to 10 times the minimum inoculum to produce endocarditis in at least 90% of the untreated controls (where CFU refers to colony forming units).
(§2) The treatment was started 12 hours after the bacterial infection, and was continued for 5 days. […]
(§3) The control rats were sacrificed at the start of the treatment and the treated rats were sacrificed 24 hours after the final antibiotic administration. The bacterial density in the vegetations was determined after dissecting the vegetations under sterile conditions, weighing, homogenizing in 1 ml of saline solution, and then diluting the solution (series of dilutions) before placing it onto plates for counting of the colonies. The number of colonies growing on the plates was determined after 48 hours of incubation at 35° C. The bacterial densities in the vegetations were expressed as log10 CFU/g of tissue. […]

[2] = tested on: C-MLSB-resistant MRSA strains; experiment: Rat experimental endocarditis resulting from C-MLSB-resistant MRSA strains (overall statement); format: in vivo, rats; details: monotherapy
Protocol: Synercid® (quinupristine/dalfopristine) and cefpirome were tested separately in rats, on experimental endocarditis resulting from C-MLSB-resistant MRSA strains.
as §1, §2, §3

[3] = in vivo; parameters: species or system rats; details: Wistar, rat, iv
Protocol: The treatment was started 12 hours after the bacterial infection, and was continued for 5 days. The antibiotics were administered by means of a permanent venous catheter with a programmable pump (Pump 44; Harvard Apparatus Inc.) according to the method described in Antimicrobial Agents Chemother., 39, 1419–1424 (1995), the disclosure of which is incorporated by reference herein. The treatments simulated kinetics in humans, which were produced by intravenous administration of 7 mg/kg of quinupristine/dalfopristine every 12 hours, or by intravenous administration of 2 g of cefpirome every 12 hours.
Prior to the treatment experiments, the setting up of the simulation of the human kinetics of the quinupristine/dalfopristine combination with cefpirome in rats was performed on animals that were catheterized, but not infected. In these preliminary experiments, each point of the pharmacokinetics curve is the mean (±standard deviation) of the concentrations measured in 6 different rats. The concentrations of product in the serum were measured in a bioassay (using Micrococcus luteus for quinupristine/dalfopristine, and Bacillus subtilis ATCC 6633 for cefpirome).
These values are in accordance with the therapeutic levels observed in humans for these active principles. […]

[4] = tested on: MRSA AW7; experiment: Rat experimental aortic endocarditis, MRSA AW7; format: in vivo, Wistar female rats
From the text: as §1, §2, §3

[5] = tested on: MRSA strain AW7 (C-MLSB-resistant); experiment: MIC determination on agar plates, MRSA strain AW7; format: cell-based; details: Staphylococcus aureus, read-out: minimum inhibitory concentration (MIC)
Protocol: (§4) The microorganisms tested were two clinical isolates of C-MLSB-resistant MRSA: strains AW7 and P8, previously characterized in vitro, and in vivo in rat experimental endocarditis.
(§5) The study in vitro and the determination of the MICs (minimum inhibitory concentrations) was carried out using cultures on agar plates (Antimicrob. Agents Chemother., 39, 1419–1424 (1995), the disclosure of which is incorporated by reference herein).

[6] = tested on: MRSA strain AW7; experiment: Growth of bacterial populations on cefpirome-containing plates, with or without subinhibitory dalfopristine/quinupristine, strain AW7; format: cell-based, Staphylococcus aureus
Protocol: as §5
(§6) Bacterial populations of the MRSA strains Ab 7 and P8 can grow on plates containing up to 60 mg/l of cefpirome.

[7] = tested on: MRSA strain P8; experiment: Growth of bacterial populations on cefpirome-containing plates, with or without subinhibitory dalfopristine/quinupristine, strain P8; format: cell-based, Staphylococcus aureus
Protocol: as §5, §6

[8] = tested on: MRSA strain P8 (C-MLSB-resistant); experiment: MIC determination on agar plates, MRSA strain P8; format: cell-based; details: Staphylococcus aureus, read-out: minimum inhibitory concentration (MIC)
Protocol: as §4, §5

With CO/N=C(\C(=O)N[C@@H]1C(=O)N2C(C(=O)[O-])=C(C[n+]3cccc4c3CCC4)CS[C@H]12)c1csc(N)n1 [cefpirome] the “effectiveness on aortic endocarditis (statistical significance)” value [1] was “neither quinupristine/dalfopristine, nor cefpirome, in monotherapy were significantly effective”, the effectiveness in vivo [2] was “Neither Synercid® nor cefpirome showed any effectiveness in vivo in monotherapy” and the concentration at 5 min [3] was 161 ± 19.7 µg/mL. For the same molecule, the concentration at 12 h [3] was 2200 ± 1400 ng/mL, the “effectiveness on aortic endocarditis (statistical significance)” value ([4]; MRSA AW7, 5 days treatment, FIG. 2, monotherapy P>0.05, combination P<0.05) was “neither quinupristine/dalfopristine, nor cefpirome, in monotherapy were significantly effective” and the “log10 CFU/g of vegetation” value ([4]; MRSA AW7, in 38% of the cases) was over 8.7 in 38% log10 CFU/g. The MIC [5] was 4 µg/mL (≈ 7.77 µM), the “cefpirome concentration in plates up to which bacterial populations can grow” value ([6]; MRSA strain AW7 (printed Ab 7), cefpirome alone) was “up to 60 mg/l” and the “cefpirome concentration in plates at which the strain did not grow” value ([6]; MRSA strain AW7, plates with subinhibitory (¼ MIC) dalfopristine/quinupristine combination added) was at least 5 mg/L. For the same molecule, the “cefpirome concentration in plates up to which bacterial populations can grow” value ([7]; MRSA strain P8, cefpirome alone) was “up to 60 mg/l”, the “cefpirome concentration in plates at which the strain did not grow” value ([7]; MRSA strain P8, plates with subinhibitory (¼ MIC) dalfopristine/quinupristine combination added) was at least 15 mg/L and the MIC [8] was 2 µg/mL (≈ 3.89 µM).
